Measured values published in patent US20220267310A1, “QUINAZOLINE AND CINNOLINE DERIVATIVES AS DNA-PK INHIBITOR” (MEDSHINE DISCOVERY INC., priority 2019, published 2022).
Where two headings read alike, the source gives them in different places.

Key:
[1] = Pharmacokinetic evaluation in mice, IV and PO; format: in vivo, Balb/c female mice; conditions: for Bioavailability (%) / bioavailability: mouse; for bioavailability: plasma; for Vd: read-out: Vdss
Description: The tested compound was mixed with 10% DMSO/50% PEG400/40% water, vortexized and ultrasonic to prepare 0.2 mg/mL or 0.4 mg/ml, approximately clarified solution, which was filtered by a microporous membrane and then standby. Balb/c female mice of 18-20 g were selected and given the candidate compound solution intravenously at a dose of 1 or 2 mg/kg. The tested compound was mixed with 10% DMSO/50% PEG400/40% water, vortexized and ultrasonic to prepare 0.2 mg/mL or 1 mg/mL approximately clarified solution, which was filtered by a microporous membrane and then standby. Balb/c female mice of 18 to 20 g were selected and given orally the candidate compound solution at a dose of 2 or 10 mg/kg. Whole blood was collected for a certain period of time, and plasma was prepared. Drug concentration was analyzed by LC-MS/MS method, and pharmacokinetic parameters were calculated by Phoenix WinNonlin software (US Pharsight company).
C0: instantaneous concentration required after intravenous injection; Cmax: the highest blood concentration after administration; Tmax: time required to reach peak concentration after administration; T1/2: the time required for blood drug concentration to decrease by half; Vdss: apparent volume of distribution, which refers to the ratio constant of drug dosage to blood concentration when a drug reaches dynamic equilibrium in vivo. Cl: clearance rate, referring to drug apparent distribution volume number removed from the body per unit time; Tlast: time of last detection point: AUC0-last: an area under a drug duration curve, referring to an area surrounded by the blood drug concentration curve on the time axis; Bioavailability: a measure of the rate and extent of drug absorption into the blood circulation, which was an important index to evaluate drug absorption degree.

DNA-PK (h) = molecular target: T1, DNA-PK (h) (Homo sapiens, UniProt P78527); assay: DNA-PK kinase inhibitory activity (HTRF, Eurofins); format: biochemical; conditions: ATP: 10 μM
T1 construct: Eurofins Pharma Discovery Service (contract assay)
Description: (§1) This experiment was tested at Eurofins Pharma Discovery Service, Reaction Biology Corp. (RBC)
(§2) […] DNA-PK: Mg/ATP; GST-cMyc-p53; EDTA; Ser15 antibody; ATP: 10 μM; biotinylated phosphatidylinositol-3,4,5-triphosphate; GST label GRP1 PH domain; streptavidin and phycocyanin; europium-labelled monoclonal antibody against GST.
DNA-PK (h) was incubated in a determination buffer containing 50 nM GST-cMyc-p53 and Mg/ATP (density as required). The reaction was initiated by adding a mixture of Mg/ATP. After incubating at room temperature for 30 min, a termination solution containing EDTA was added to terminate the reaction. Finally, a detection buffer (containing labeled anti-GST monoclonal antibody and europium-labeled anti-phosphate Ser15 antibody against phosphorylated p53) was added. Then, the board was read in time-resolved fluorescence mode, and a Homogeneous Time Resolved Fluorescence (HTRF) signal was measured according to the formula HTRF=10000×(Em665 nm/Em620 nm).

PI3K (p110α/p85α) = molecular target: T2, PI3K (p110α/p85α) (Homo sapiens, UniProt P42336); assay: PI3K (p110α/p85α) kinase inhibitory activity (HTRF); format: biochemical
T2 construct: Eurofins Pharma Discovery Service (contract assay)
Description: as §1, §2
PI3K (p110α/p85α) was incubated in a determination buffer containing phosphatidylinositol 4,5-diphosphate and Mg/ATP (density as required). The reaction was initiated by adding an ATP solution. After incubating at room temperature for 30 min, a termination solution containing EDTA and biotinylated phosphatidylinositol-3,4,5-triphosphate was added to terminate the reaction. Finally, a detection buffer (containing labeled anti-GST monoclonal antibody, PH domain of GRP1 with GST label and streptavidin and phycyanin and […]) was added. Then, the board was read in time-resolved fluorescence mode, and an HTRF signal was measured according to the formula HTRF=10000×(Em665 nm/Em620 nm).

[2] = female, Balb/c, IV(1 mg/kg), mouse plasma
[3] = female, Balb/c, IV(2 mg/kg), mouse plasma
[4] = female, Balb/c, PO(2 mg/kg), mouse plasma
[5] = female, Balb/c, PO(10 mg/kg), mouse plasma

T2 sequence (P42336 whole entry, species assumed): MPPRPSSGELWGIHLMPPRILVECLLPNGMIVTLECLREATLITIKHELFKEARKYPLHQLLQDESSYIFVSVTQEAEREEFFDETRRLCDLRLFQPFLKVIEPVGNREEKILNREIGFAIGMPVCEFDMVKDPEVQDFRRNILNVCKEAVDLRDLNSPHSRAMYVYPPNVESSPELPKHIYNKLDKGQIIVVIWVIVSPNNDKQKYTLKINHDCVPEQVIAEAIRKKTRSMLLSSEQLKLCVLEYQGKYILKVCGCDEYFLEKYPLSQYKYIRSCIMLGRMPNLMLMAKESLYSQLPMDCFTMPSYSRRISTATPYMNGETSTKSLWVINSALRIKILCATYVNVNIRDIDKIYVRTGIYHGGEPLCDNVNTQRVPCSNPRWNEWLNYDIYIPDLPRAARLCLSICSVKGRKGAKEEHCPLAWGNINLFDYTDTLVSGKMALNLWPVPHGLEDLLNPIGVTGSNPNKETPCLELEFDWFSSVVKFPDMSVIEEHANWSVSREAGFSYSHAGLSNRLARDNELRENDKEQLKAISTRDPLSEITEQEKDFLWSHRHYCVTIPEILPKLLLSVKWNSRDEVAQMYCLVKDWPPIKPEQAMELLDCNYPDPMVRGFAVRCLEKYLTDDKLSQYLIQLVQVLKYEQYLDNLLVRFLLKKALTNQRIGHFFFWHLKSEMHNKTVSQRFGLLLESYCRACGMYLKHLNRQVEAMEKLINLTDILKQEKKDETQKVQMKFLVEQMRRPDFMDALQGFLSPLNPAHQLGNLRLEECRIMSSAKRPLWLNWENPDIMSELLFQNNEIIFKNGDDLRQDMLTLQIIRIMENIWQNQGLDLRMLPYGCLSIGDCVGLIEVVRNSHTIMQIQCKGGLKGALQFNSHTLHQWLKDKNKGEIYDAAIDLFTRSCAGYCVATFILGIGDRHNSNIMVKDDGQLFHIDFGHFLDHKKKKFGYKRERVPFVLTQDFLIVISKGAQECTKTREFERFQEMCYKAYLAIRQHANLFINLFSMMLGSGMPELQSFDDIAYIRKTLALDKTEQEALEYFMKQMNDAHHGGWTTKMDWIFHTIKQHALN
T2 sequence (P27986 whole entry partner, species assumed): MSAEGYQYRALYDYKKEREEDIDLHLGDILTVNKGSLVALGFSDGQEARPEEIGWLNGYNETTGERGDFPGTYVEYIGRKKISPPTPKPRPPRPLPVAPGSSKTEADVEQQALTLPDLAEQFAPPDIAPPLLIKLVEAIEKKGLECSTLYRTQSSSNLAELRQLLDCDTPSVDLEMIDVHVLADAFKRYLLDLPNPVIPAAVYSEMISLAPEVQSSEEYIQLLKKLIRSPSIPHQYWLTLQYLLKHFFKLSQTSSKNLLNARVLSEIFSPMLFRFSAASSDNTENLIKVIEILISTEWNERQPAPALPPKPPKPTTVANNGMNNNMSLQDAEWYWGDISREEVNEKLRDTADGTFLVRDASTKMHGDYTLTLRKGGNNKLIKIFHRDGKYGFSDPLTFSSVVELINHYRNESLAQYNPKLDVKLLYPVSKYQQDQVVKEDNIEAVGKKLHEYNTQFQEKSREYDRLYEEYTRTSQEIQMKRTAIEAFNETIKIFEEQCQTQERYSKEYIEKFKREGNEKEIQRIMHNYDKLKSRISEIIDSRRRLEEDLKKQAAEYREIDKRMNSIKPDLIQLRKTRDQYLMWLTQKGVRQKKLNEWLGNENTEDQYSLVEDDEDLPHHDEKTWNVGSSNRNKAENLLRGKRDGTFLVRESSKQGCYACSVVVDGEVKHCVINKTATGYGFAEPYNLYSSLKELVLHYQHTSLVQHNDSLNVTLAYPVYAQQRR

COc1ccc(C(O)c2cc(-c3cnnc4c(F)c(N5CCOCC5)cc(F)c34)c(F)cc2Cl)nn1 (single isomer, unassigned) [Embodiment 19]
AUC0-last ([1]; IV(1 mg/kg), mouse plasma): 1569 nM·h
C0 ([1]; IV(1 mg/kg), mouse plasma): 1.29 µM
Cl ([1]; IV(1 mg/kg), mouse plasma): 1.21 L/h/kg
T1/2 ([1]; IV(1 mg/kg), mouse plasma): 78.6 min
Tlast ([1]; IV(1 mg/kg), mouse plasma): 8.00 h
Vdss ([1]; IV(1 mg/kg), mouse plasma): 2.13 L/kg
AUC0-last ([1]; IV(2 mg/kg), mouse plasma): 3832 nM·h
C0 ([1]; IV(2 mg/kg), mouse plasma): 2.25 µM
Tlast ([1]; IV(2 mg/kg), mouse plasma): 8.00 h
Bioavailability (%) ([1]; PO(2 mg/kg)): 47.9%
AUC0-last ([1]; PO(2 mg/kg), mouse plasma): 1503 nM·h
Cmax ([1]; PO(2 mg/kg), mouse plasma): 0.448 µM
T1/2 ([1]; PO(2 mg/kg), mouse plasma): 488 min
Tlast ([1]; PO(2 mg/kg), mouse plasma): 8.00 h
Tmax ([1]; PO(2 mg/kg), mouse plasma): 15 min
Bioavailability (%) ([1]; PO(10 mg/kg)): 70.5%
AUC0-last ([1]; PO(10 mg/kg), mouse plasma): 13737 nM·h
Cmax ([1]; PO(10 mg/kg), mouse plasma): 2.75 µM
T1/2 ([1]; PO(10 mg/kg), mouse plasma): 107 min
Tlast ([1]; PO(10 mg/kg), mouse plasma): 12.0 h
Tmax ([1]; PO(10 mg/kg), mouse plasma): 60 min
IC50 (DNA-PK (h)): 0.0021 µM
IC50 (PI3K (p110α/p85α)): 0.483 µM

COc1ccc([C@@H](O)c2cc(-c3nncc4cc(N5CCOCC5)ccc34)c(F)cc2Cl)nn1 [Embodiment M3814, reference compound]
Tlast ([1]; IV(1 mg/kg), mouse plasma): 6.00 h
Tlast ([1]; IV(2 mg/kg), mouse plasma): 4.00 h
Tlast ([1]; PO(2 mg/kg), mouse plasma): 8.00 h
Tlast ([1]; PO(10 mg/kg), mouse plasma): 8.00 h
bioavailability ([1]; female, Balb/c, PO(2 mg/kg)): 25.8%
bioavailability ([1]; female, Balb/c, PO(10 mg/kg)): 54%
AUC(0-t) [1, 2]: 1330 nM·h
C0 [1, 2]: 1.97 µM
clearance [1, 2]: 1.55 L/h/kg
half-life [1, 2]: 42.4 min
Vd [1, 2]: 1.34 L/kg
AUC(0-t) [1, 3]: 1410 nM·h
C0 [1, 3]: 2.16 µM
clearance [1, 3]: 2.94 L/h/kg
half-life [1, 3]: 28.7 min
Vd [1, 3]: 1.9 L/kg
AUC(0-t) [1, 4]: 688 nM·h
Cmax [1, 4]: 0.58 µM
half-life [1, 4]: 128 min
Tmax ([1]; female, Balb/c, PO(2 mg/kg), mouse plasma, read-out: Tmax): 15 min
AUC(0-t) [1, 5]: 3730 nM·h
Cmax [1, 5]: 2.06 µM
half-life [1, 5]: 85.8 min
Tmax ([1]; female, Balb/c, PO(10 mg/kg), mouse plasma, read-out: Tmax): 30 min
IC50 (DNA-PK (h)): 0.001 µM
IC50 (PI3K (p110α/p85α)): 0.042 µM
